Measurements taken from PubChem BioAssay (NCI).
Several values for one entry are separate records, joined by “and”; a condition that tells them apart may be missing. Equal values may be shown once.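 Grown in 96-well plates, cells were treated for 48 hours with each compound at five concentrations. Insufficient inhibition: endpoint recorded as highest concentration tested. Here, GI50 denotes the concentration required for 50% inhibition of growth. At the TGI there is no net growth.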

Legend:
Experiment in all cases: growth of human tumour cells (NCI), 48 h
[1] = system: SNB-19 CNS
[2] = system: SK-MEL-2 melanoma
[3] = system: UO-31 renal
[4] = system: MALME-3M melanoma
[5] = system: HCT-116 colon
[6] = system: HOP-62 NSCLC
[7] = system: CAKI-1 renal
[8] = system: UACC-62 melanoma
[9] = system: BT-549 breast
[10] = system: T-47D breast

SMILES	TGI [1] [µM]	TGI [2] [µM]	TGI [3]	TGI [4]	TGI [5] [µM]	TGI [6] [µM]	TGI [7] [µM]	TGI [8] [µM]	TGI [9]	TGI [10] [µM]	GI50 [1]	GI50 [3]	GI50 [4]	GI50 [5]	GI50 [6]	GI50 [7] [µM]	GI50 [8] [µM]	GI50 [10] [µM]	GI50 [2] [µM]	GI50 [9] [µM]
COc1ccc(CC(=O)NCCc2ccc(OC)c(OC)c2OC)cc1	> 100	> 100	> 100 µM	> 100 µM	> 100	> 100	–	–	–	–	–	–	–	–	–	–	–	–	–	–
O=C1Nc2c(Cl)cc(Cl)cc2/C1=N/N=C/c1ccco1	> 100	57.1	55.4 µM	> 100 µM	> 100	> 100	72.8	53.6	60.6 µM	–	–	–	–	–	–	–	–	–	–	–
CCCCCCCCCCCCSC(=S)c1c(C)[nH]n(-c2ccccc2)c1=O	> 50	–	38.9 µM	39.8 µM	–	15.6	> 50	25.9	–	–	–	–	–	–	–	–	–	–	–	–
CC(C)(C)OC(=O)C1C(=O)NC(=O)CC1CC(OCc1ccccc1)C(OCc1ccccc1)C(COCc1ccccc1)OCc1ccccc1 (centres undefined)	> 100	–	24.8 µM and 16.2 µM	> 100 µM and 45.4 µM	> 100	> 100	–	–	79.5 µM and > 100 µM	81	77.1 µM and 35.6 µM	11.1 µM and 4.48 µM	25.4 µM and 11.4 µM	48.5 µM and 17 µM	> 100 µM and 34 µM	–	–	–	–	–
O=C(C[n+]1ccccc1)N/N=C(/CCC(=O)N(Cc1ccccc1)Cc1ccccc1)CC(=O)c1ccccc1	> 100	> 100	> 100 µM	> 100 µM	> 100	> 100	> 100	> 100	–	–	–	–	–	–	–	–	–	–	–	–
Cc1cc(OCc2nnc3n2S(=O)(=O)c2ccccc2N3C)ccc1Cl	39.1	> 100	> 100 µM	–	> 100	29.7	> 100	52.9	36.4 µM	> 100	–	–	–	–	–	–	–	–	–	–
C=CCC1(C(=O)OC)CCC/C(=N\O)C1 (centres undefined)	> 10	–	–	> 10 µM	> 10	> 10	> 10	> 10	> 10 µM	> 10	–	–	–	–	–	–	–	–	–	–
O=[N+]([O-])c1nccn1CC(O)c1ccccc1 (centres undefined)	> 100	> 100	> 100 µM	> 100 µM	–	> 100	> 100	> 100	–	–	–	–	–	–	–	–	–	–	–	–
NC(=O)c1cc(N2CC2)c([N+](=O)[O-])cc1[N+](=O)[O-]	> 200	> 20	> 200 µM	> 200 µM	> 200	> 200	> 200	> 200	–	> 200	> 200 µM	> 200 µM	–	> 200 µM	> 200 µM	> 200	> 200	–	–	–
CCOC(=O)C12CCCC1(O)N(NC(=O)OC)C(C)=C2C(=O)OC (centres undefined)	> 100	47.3	> 100 µM	> 100 µM	> 100	> 100	> 100	> 100	–	–	–	–	–	–	–	–	–	–	–	–
O=C(CC1(O)C(=O)Nc2c(Cl)cc(Cl)cc21)c1ccccc1 (centres undefined)	> 100	> 100	> 100 µM	> 100 µM	> 100	–	> 100	> 100	–	–	–	–	–	–	–	–	–	–	–	–
COc1ccc(N2C(=O)C3CC(c4ccc(Br)cc4)c4c([nH]c5ccccc45)C3C2=O)cc1 (centres undefined)	10.5	> 100	27.1 µM	36.7 µM	16.1	11.5	29.6	32.3	–	–	–	–	–	–	–	–	–	–	–	–
CC(C)(C)C(=O)N1C(C(=O)O)Cc2ccccc2[C@@H]1Cc1ccccc1 (some centres undefined)	> 100	> 100	–	> 100 µM	> 100	> 100	> 100	> 100	–	–	–	–	–	–	–	–	–	–	–	–
COC(=O)/C=C1/SC(=Nc2cccc(Cl)c2)N(CCc2c[nH]c3ccc(O)cc23)C1=O	6.88	3.08	2.88 µM	–	2.71	3.93	3.67	3.47	3.05 µM	7.15	2.57 µM	1.43 µM	–	1.18 µM	1.9 µM	1.83	1.68	2.03	1.53	1.24
[N-]=[N+]=NCN1C(=O)C2C3C=CC(C2C1=O)C1C2C(=O)N(CN=[N+]=[N-])C(=O)C2C31 (centres undefined)	> 100	> 100	> 100 µM	–	> 100	> 100	> 100	> 100	–	> 100	–	–	–	–	–	–	–	–	–	–
Cc1ccc(NCC2(/N=C/c3ccccc3)OC(CO)C(O)C2O)cc1 (centres undefined)	> 100	> 100	> 100 µM	> 100 µM	> 100	> 100	> 100	> 100	–	–	–	–	–	–	–	–	–	–	–	–
COc1ccc(/C=C/c2cc(OC)c(OC(C)=O)c(OC)c2)cc1	> 100	> 100	49.3 µM	88.1 µM	> 100	73.7	–	42.8	–	–	–	–	–	–	–	–	–	–	–	–
Cc1cccc(-c2nnc3s/c(=C\c4ccc(N(C)C)cc4)c(=O)n23)c1	> 100	> 100	> 100 µM	> 100 µM	> 100	> 100	> 100	> 100	–	–	–	–	–	–	–	–	–	–	–	–
NC(=S)N1N=C2CCCCCC[C@@H]2[C@H]1c1ccccc1	> 100	> 100	> 100 µM	> 100 µM	> 100	> 100	> 100	> 100	–	–	–	–	–	–	–	–	–	–	–	–
CCOC(=O)C1(C(=O)OCC)C(C(C)(C)C)=C(C)c2ccccc21	45	37.6	47.3 µM	28.9 µM	20.2	36.3	–	26	–	–	–	–	–	–	–	–	–	–	–	–
COc1ccc(C(=O)C2CCC(C(=O)O)C2)cc1 (centres undefined)	> 100	> 100	> 100 µM	> 100 µM	> 100	> 100	> 100	> 100	–	–	–	–	–	–	–	–	–	–	–	–
CC(C)(C)OC(=O)NCC(CNC(=O)OC(C)(C)C)C(N)=O	> 100	–	> 100 µM	> 100 µM	> 100	> 100	> 100	> 100	> 100 µM	> 100	–	–	–	–	–	–	–	–	–	–
COc1ccc(-c2ncnc3c2ncn3CC#CCCl)cc1	18.1	–	15.3 µM	16 µM	14.7	3.31	3.11	15.2	13.6 µM	12.7	4.87 µM	2.43 µM	2.58 µM	3.5 µM	1.79 µM	1.47	3.32	2.89	–	2.98
